From patent publication US12082582B2, “Synergistic preservative compositions, process for preparing the same and method of use thereof” (ISP INVESTMENTS LLC, priority 2018, dated 2024)
Blank lines part the entries; values can stand above or below the compound they belong to.

Legend:
Assay type in all cases: cell-based
A. niger = experiment: Synergy study of PC and (CHA + IPMP), MIC by broth dilution; conditions: compound acting alone
Method: (§1) The synergistic activity of PC and (CHA+IPMP) compounds were performed against selected microbial strains.
(§2) Tryptic Soy Broth (TSB) media was used for bacterial evaluations and Yeast Malt Broth (YMB) for fungal evaluations. The IPMP solution is prepared by combining 0.25% IPMP with 20% DMSO and water (q.s. 100%). The CHA solution was prepared by combining 0.5% CHA with 20% DMSO and water (q.s. 100%). The compounds are then added to the media (50 μL) and serially diluted. The same amount of PC was added to all wells (e.g. 50 μL of 6.25% solution). 100 μl of a suspension of the testing bacteria or fungi are added to a final concentration of approximately 10^6 CFU/ml in double concentrated media. The inoculated media is then incubated at 32° C. for 2-5 days for bacteria or at 28° C. for 3-7 days for fungi.
(§3) The lowest concentration of each compound or mixture of compounds to inhibit visible growth is taken as the minimum inhibitory concentration (MIC). The MIC is taken as end points of activity. End points for the mixture of compound A (CHA) and compound B (IPMP) with and without PC are then compared with the end points for the pure active ingredient alone.
(§4) Synergism was determined by a commonly used and accepted method described by Kull A. C; Eisman, P. C.; Sylwestrowicz, H. D. and Mayer, R. L. 1961. Applied Microbiology, 9:538-541 using the ratio determine by: Qa/QA+Qb/QB=Synergy Wherein: • QA is the concentration of compound A in PPM, acting alone, which produced an end point. • Qa is the concentration of compound A in PPM, in the mixture, which produced an end point. • QB is the concentration of compound B in PPM, acting alone, which produced an end point. • Qb is the concentration of compound B in PPM, in the mixture, which produced an end point When the sum of Qa/QA+Qb/QB is greater than one, antagonism is indicated. When the sum is equal to one, additive is indicated.
(§5) The results comprise following parameters: 1. Test organism (bacteria or fungi), 2. The end-point activity in % measured by MIC for the compound A alone (QA), for compound A in the mixture (Qa), for compound B alone (QB), for compound B in the mixture (Qb), 3. The ratio of CHA and IPMP (compound A and B) in that particular combination, 4. The sum of Qa+Qb (total ppm that inhibited growth) and 5. and the synergy index (SI) based on the formula SI=Qa/QA+Qb/QB

E. coli = experiment: as above; conditions: compound acting alone
Method: as §1, §2, §3, §4, §5

B. cepacia = experiment: as above; conditions: compound acting alone
Method: as §1, §2, §3, §4, §5

C. albicans = experiment: as above; conditions: compound acting alone
Method: as §1, §2, §3, §4, §5

[1] = Antimicrobial and antifungal characteristics (MIC) of propylene carbonate alone
Text: In one embodiment of the application, the synergistic composition of propylene carbonate with one or more organic compounds or preservative compounds can provide broad spectrum antimicrobial properties. […] The presence of propylene carbonate in the composition can maximize the partitioning of the mixture of organic/preservative compounds into the water phase when added to an end-user composition comprising a mixture of oil and a water phase. Further, the propylene carbonate-based compositions or blends acts as a delivery agent for other preservative/organic actives that have low polarity with high dielectric constant making it a suitable blend to dissolve hydrophobic non-polar actives. The high dielectric constant of the composition enables it to partition the active ingredients towards the oil/water interface which is critical for maximum efficacy and reduces use levels of preservatives or boosters.

MIC (A. niger; Aspergillus niger, read-out: MIC, CHA alone (QA)): 312 µg/mL
MIC (E. coli; Escherichia coli, read-out: MIC, CHA alone (QA)): 625 µg/mL
MIC (B. cepacia; Burkholderia cepacia, read-out: MIC, CHA alone (QA)): 312 µg/mL
MIC (C. albicans; Candida albicans, read-out: MIC, CHA alone (QA)): 312 µg/mL
Compound: CCCCCCCC(=O)NO [CHA, caprylhydroxamic acid]

Compound: Cc1cc(O)ccc1C(C)C [IPMP, isopropyl methylphenol]
MIC, IPMP alone (QB) (A. niger): 156.3 ppm
MIC, IPMP alone (QB) (E. coli): 625 ppm
MIC, IPMP alone (QB) (B. cepacia): 312.5 ppm
MIC, IPMP alone (QB) (C. albicans): 312.5 ppm

Compound: CC1COC(=O)O1 (stereo not drawn) [Propylene carbonate]
Antimicrobial and antifungal characteristics (MIC) [1]: no significant antimicrobial and antifungal characteristics
